From article PMC2679150 (Science (New York, N.Y.), 2009)

Target: T1, BlaC β-lactamase (Mycobacterium tuberculosis, UniProt P9WKD3)
T1 sequence (P9WKD3 35-307): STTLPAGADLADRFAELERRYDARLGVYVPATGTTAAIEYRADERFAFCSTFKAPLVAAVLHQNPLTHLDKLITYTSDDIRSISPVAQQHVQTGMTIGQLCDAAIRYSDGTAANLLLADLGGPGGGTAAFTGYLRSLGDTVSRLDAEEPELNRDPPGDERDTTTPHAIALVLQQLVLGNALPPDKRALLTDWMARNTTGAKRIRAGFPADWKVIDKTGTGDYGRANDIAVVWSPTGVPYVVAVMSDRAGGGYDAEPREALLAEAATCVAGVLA
Test: biochemical

Structure (SMILES): C[C@@H](O)[C@H]1C(=O)N2C(C(=O)O)=C(S[C@@H]3CN[C@H](C(=O)N(C)C)C3)[C@H](C)[C@H]12 [meropenem]
- Ki: 1.1 ± 0.8 µM
